In patent US6964975B2, “Isoxazole and thiazole compounds and use thereof as medicine” (Kirin Beer Kabushiki Kaisha, priority 2000, dated 2005):

Molecular target: T1, human EDG-2 (Homo sapiens, UniProt Q92633)
T1 construct: cDNA of the cloned human EDG-2 was introduced into pEFneo, which is an animal expression vector; expressed in transfected cells; host or cells: HepG2
Test: Inhibitory activity on LPA-induced elevation of intracellular Ca2+ level
Assay type: cell-based
Settings: 50% inhibition of elevation of intracellular Ca2+ level by LPA, human EDG-2/HepG2 cells, fura-2
Description: The human EDG-2 expression plasmid was introduced into HepG2 cells by electroporation. After the introduction, culturing was continued while exchanging selective media every 3 to 4 days, thereby obtaining an expressed colony. Regarding these cells, Ca-influx and cell-proliferation by LPA, level of [^3H] LPA binding and the like were inspected to select a cell line which highly expresses human EDG-2 (human EDG-2/HepG2).
Human EDG-2/HepG2 cells were washed and then suspended in 0.1% BSA (bovine serum albumin)-containing HEPES buffer. A fluorescent indicator, fura-2/AM (Wako Pure Chemical Industries, Ltd.), was added, and the mixture was shaken at room temperature for 45 minutes so that the indicator is included in the cell. Cells were washed again and then suspended in 0.1% BSA-containing HEPES buffer, and intracellular Ca^2+ level was assayed using FDSS2000 (Hamamatsu Photonics). […] Each test compound was added to the cell suspension followed by the addition of LPA, thereby examining the inhibitory activity of the test compound on the function of LPA for elevating the intracellular Ca level. […] The lower the IC50 value, the higher the antagonistic activity on the LPA receptor.

T1 sequence (Q92633 whole entry): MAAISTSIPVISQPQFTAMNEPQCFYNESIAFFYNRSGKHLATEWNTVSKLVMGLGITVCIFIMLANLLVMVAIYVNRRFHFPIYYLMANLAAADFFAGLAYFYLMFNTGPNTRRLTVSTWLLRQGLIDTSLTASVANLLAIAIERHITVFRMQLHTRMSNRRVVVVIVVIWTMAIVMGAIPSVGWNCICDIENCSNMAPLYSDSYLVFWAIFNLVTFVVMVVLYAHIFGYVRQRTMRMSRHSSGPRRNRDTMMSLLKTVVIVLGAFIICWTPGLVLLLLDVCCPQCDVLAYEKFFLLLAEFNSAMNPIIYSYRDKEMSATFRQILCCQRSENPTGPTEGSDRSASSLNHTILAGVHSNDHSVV

Compound: Cc1ccsc1-c1onc(C)c1NC(=O)OC(C)c1ccccc1 (centres unmarked) [Compound 66, 1-Phenylethyl N-[3-methyl-5-(3-methyl-2-thienyl)-4-isoxazolyl]carbamate]
- IC50: 10 µM

Compound: Cc1noc(-c2ccccc2)c1NC(=O)O[C@H](C)c1ccccc1Cl [Compound 18, (1R)-1-(2-Chlorophenyl)ethyl N-(3-methyl-5-phenyl-4-isoxazolyl)carbamate]
- IC50: 3 µM

Compound: Cc1noc(-c2ccc([N+](=O)[O-])cc2)c1NC(=O)OC(C)c1ccccc1 (centres unmarked) [Compound 54, 1-Phenylethyl N-[3-methyl-5-(4-nitrophenyl)-4-isoxazolyl]carbamate]
- IC50: 10 to 30 µM

Compound: Cc1noc(-c2cccc(CCl)c2)c1NC(=O)OC(C)c1ccccc1Cl (centres unmarked) [Compound 70, 1-(2-Chlorophenyl)ethyl N-[5-[3-(chloromethyl)phenyl]-3-methyl-4-isoxazolyl]carbamate]
- IC50: 1 to 3 µM

Compound: Cc1ccc(-c2onc(C)c2NC(=O)OC(C)c2ccccc2Cl)s1 (centres unmarked) [Compound 69, 1-(2-Chlorophenyl)ethyl N-[3-methyl-5-(5-methyl-2-thienyl)-4-isoxazolyl]carbamate]
- IC50: 3 to 10 µM

Compound: Cc1noc(-c2ccc(OC(F)(F)F)cc2)c1NC(=O)O[C@H](C)c1ccccc1Br [Compound 44, (1R)-1-(2-Bromophenyl)ethyl N-[3-methyl-5-[4-(trifluoromethoxy)phenyl]-4-isoxazolyl]carbamate]
- IC50: 3 µM

Compound: Cc1onc(-c2ccccc2)c1NC(=O)OC1CCc2ccccc2C1 (centres unmarked) [Compound 98, 1,2,3,4-Tetrahydro-2-naphthalenyl N-(5-methyl-3-phenyl-4-isoxazolyl)carbamate]
- IC50: 30 to 100 µM

Compound: Cc1noc(-c2ccc(COCc3c(F)cccc3F)cc2)c1NC(=O)OC(C)c1ccccc1Cl (centres unmarked) [Compound 83, 1-(2-Chlorophenyl)ethyl N-[5-(4-[[(2,6-difluorobenzyl)oxy]methyl]phenyl)-3-methyl-4-isoxazolyl]carbamate]
- IC50: 10 µM

Compound: Cc1onc(-c2ccc(F)cc2)c1NC(=O)OC(C)c1ccccc1Cl (centres unmarked) [Compound 16, 1-(2-Chlorophenyl)ethyl N-[3-(4-fluorophenyl)-5-methyl-4-isoxazolyl]carbamate]
- IC50: 3 to 10 µM

Compound: C=CCCCOC(=O)Nc1c(-c2ccccc2)noc1C [Compound 102, 4-Pentenyl N-(5-methyl-3-phenyl-4-isoxazolyl)carbamate]
- IC50: 30 to 100 µM

Compound: Cc1noc(-c2ccsc2)c1NC(=O)OC(C)c1ccccc1Cl (centres unmarked) [Compound 75, 1-(2-Chlorophenyl)ethyl N-[3-methyl-5-(3-thienyl)-4-isoxazolyl]carbamate]
- IC50: 3 to 10 µM

Compound: Cc1onc(-c2cccc(Br)c2)c1NC(=O)OC(C)c1ccccc1Cl (centres unmarked) [Compound 13, 1-(2-Chlorophenyl)ethyl N-[3-(3-bromophenyl)-5-methyl-4-isoxazolyl]carbamate]
- IC50: 30 µM

Compound: Cc1noc(-c2cccc([N+](=O)[O-])c2)c1NC(=O)OC(C)c1ccccc1Cl (centres unmarked) [Compound 59, 1-(2-Chlorophenyl)ethyl N-[3-methyl-5-(3-nitrophenyl)-4-isoxazolyl]carbamate]
- IC50: 3 to 10 µM

Compound: CC(OC(=O)Nc1c(Cl)nsc1-c1ccccc1Cl)c1ccccc1 (centres unmarked) [Compound 25, 1-Phenylethyl N-[3-chloro-5-(2-chlorophenyl)-4-isothiazolyl]carbamate]
- IC50: 30 to 100 µM

Compound: Cc1noc(-c2ccc(CCl)cc2)c1NC(=O)OC(C)c1ccccc1Cl (centres unmarked) [Compound 74, 1-(2-Chlorophenyl)ethyl N-[5-[4-(chloromethyl)phenyl]-3-methyl-4-isoxazolyl]carbamate]
- IC50: 1 to 3 µM

Compound: Cc1noc(-c2ccc(OC(F)(F)F)cc2)c1NC(=O)OC(C)c1ccccc1F (centres unmarked) [Compound 45, 1-(2-Fluorophenyl)ethyl N-[3-methyl-5-[4-(trifluoromethoxy)phenyl]-4-isoxazolyl]carbamate]
- IC50: 3 µM

Compound: Cc1onc(-c2ccccc2)c1NC(=O)OC1CCc2ccccc21 (centres unmarked) [Compound 97, 2,3-Dihydro-1H-1-indenyl N-(5-methyl-3-phenyl-4-isoxazolyl)carbamate]
- IC50: 30 to 100 µM

Compound: COCc1noc(-c2ccccc2)c1NC(=O)OC(C)c1ccccc1Cl (centres unmarked) [Compound 78, 1-(2-Chlorophenyl)ethyl N-[3-(methoxymethyl)-5-phenyl-4-isoxazolyl]carbamate]
- IC50: 30 µM

Compound: Cc1noc(-c2ccccc2)c1NC(=O)OC(C)c1ccccc1Cl (centres unmarked) [Compound 3, 1-(2-Chlorophenyl)ethyl N-(3-methyl-5-phenyl-4-isoxazolyl)carbamate]
- IC50: 3 µM

Compound: Cc1noc(-c2ccoc2)c1NC(=O)OC(C)c1ccccc1Cl (centres unmarked) [Compound 68, 1-(2-Chlorophenyl)ethyl N-[5-(3-furyl)-3-methyl-4-isoxazolyl]carbamate]
- IC50: 3 to 10 µM

Compound: Cc1noc(-c2cccc(OC(F)(F)F)c2)c1NC(=O)OC(C)c1ccccc1Cl (centres unmarked) [Compound 53, 1-(2-Chlorophenyl)ethyl N-[3-methyl-5-[3-(trifluoromethoxy)phenyl]-4-isoxazolyl]carbamate]
- IC50: 30 µM

Compound: CCc1noc(-c2ccccc2)c1NC(=O)OC(C)c1ccccc1Cl (centres unmarked) [Compound 76, 1-(2-Chlorophenyl)ethyl N-(3-ethyl-5-phenyl-4-isoxazolyl)carbamate]
- IC50: 1 to 3 µM

Compound: Cc1onc(-c2ccccc2)c1NC(=O)O[C@H](C)c1ccccc1Br [Compound 22, (1R)-1-(2-Bromophenyl)ethyl N-(5-methyl-3-phenyl-4-isoxazolyl)carbamate]
- IC50: 3 to 10 µM

Compound: Cc1noc(-c2ccc(OC(F)(F)F)cc2)c1NC(=O)OC(C)c1ccccc1Cl (centres unmarked) [Compound 36, 1-(2-Chlorophenyl)ethyl N-[5-[4-(trifluoromethoxy)phenyl]-3-methyl-4-isoxazolyl]carbamate]
- IC50: 3 to 10 µM

Compound: Cc1noc(-c2ccc(CNCc3ccco3)cc2)c1NC(=O)OC(C)c1ccccc1Cl (centres unmarked) [Compound 93, 1-(2-Chlorophenyl)ethyl N-[5-(4-[[(2-furylmethyl)amino]methyl]phenyl)-3-methyl-4-isoxazolyl]carbamate]
- IC50: 3 to 10 µM

Compound: C=CC(OC(=O)Nc1c(-c2ccccc2)noc1C)c1ccccc1 (centres unmarked) [Compound 81, 1-Phenylallyl N-(5-methyl-3-phenyl-4-isoxazolyl)carbamate]
- IC50: 30 to 100 µM

Compound: Cc1noc(-c2ccc(F)cc2)c1NC(=O)OC(C)c1ccccc1Cl (centres unmarked) [Compound 41, 1-(2-Chlorophenyl)ethyl N-[5-(4-fluorophenyl)-3-methyl-4-isoxazolyl]carbamate]
- IC50: 3 to 10 µM

Compound: Cc1onc(-c2ccccc2)c1NC(=O)OC(C)c1ccccc1F (centres unmarked) [Compound 19, 1-(2-Fluorophenyl)ethyl N-(5-methyl-3-phenyl-4-isoxazolyl)carbamate]
- IC50: 3 to 10 µM

Compound: Cc1onc(-c2ccccc2)c1NC(=O)OC(C)c1ccccc1 (centres unmarked) [Compound 12, 1-Phenylethyl N-(5-methyl-3-phenyl-4-isoxazolyl)carbamate]
- IC50: 30 to 100 µM

Compound: Cc1noc(-c2ccc(F)cc2F)c1NC(=O)OC(C)c1ccccc1Cl (centres unmarked) [Compound 60, 1-(2-Chlorophenyl)ethyl N-[5-(2,4-difluorophenyl)-3-methyl-4-isoxazolyl]carbamate]
- IC50: 1 to 3 µM

Compound: Cc1onc(-c2cccc(F)c2)c1NC(=O)OC(C)c1ccccc1Cl (centres unmarked) [Compound 21, 1-(2-Chlorophenyl)ethyl N-[3-(3-fluorophenyl)-5-methyl-4-isoxazolyl]carbamate]
- IC50: 3 µM

Compound: Cc1noc(-c2c(-c3ccccc3)noc2C)c1NC(=O)OC(C)c1ccccc1Cl (centres unmarked) [Compound 72, 1-(2-Chlorophenyl)ethyl N-[5-(3-phenyl-5-methyl-4-isoxazolyl)-3-methyl-4-isoxazolyl]carbamate]
- IC50: 10 to 30 µM
